Where two headings read alike, the source gives them in different places.
Tests used:
[1] = Single-dose pharmacokinetics in healthy volunteers under fasting and fed (high-fat breakfast) conditions, plasma concentrations by HPLC-MS, non-compartmental analysis; assay type: in vivo, human; parameters: Ke: unit not given here; details: for AUC(0-inf) / CL/F / Vd/F / half-life / Cmax / Tmax: human, plasma; for Cmax: read-out: Cmax
Text: The bioequivalence clinical trials were phase I, randomized, open-label, crossover, single-centre, with two periods separated by a 7-day washout stage. Subjects were randomised to one of the two treatment sequences, RT or TR where R was the reference formulation and T was the test formulation. Each of the clinical trial was crossover for evaluation of a test formulation compared to a reference formulation either under fed or fasting conditions. […] The treatments were allocated in a balanced manner on every inclusion day (blocks of 4 subjects). Our study adheres to CONSORT guidelines. […] Sample processing, genotyping for CYP2C19 and drug quantification were performed according to Román et al. […] Pharmacokinetic parameters were estimated from the plasma concentration–time data by non-compartmental analysis (WinNonlin Professional, version 2.0., Pharsight Corporation, USA) as reported by Román et al. […] WinNonLin Professional software version 2.0 was used for the statistical analysis. Pharmacokinetic parameters were log-transformed, and AUC and Cmax were adjusted for dose and weight. The values of pharmacokinetic parameters were expressed as mean ± standard deviation.

[2] = 40 mg; ref [27] Huber et al.; cited from earlier work
[3] = both sexes, oral, only CYP2C19*1/*1 subjects, Fast, men and women, mean ± SD
[4] = both sexes, oral, only CYP2C19*1/*1 subjects, Fed, men and women, mean ± SD
[5] = both sexes, po, Fast, all subjects, single oral dose, mean ± SD
[6] = both sexes, po, Fed (high-fat breakfast), all subjects, single oral dose, mean ± SD
[7] = female, oral, only CYP2C19*1/*1 subjects, Fast, women, mean ± SD
[8] = female, oral, only CYP2C19*1/*1 subjects, Fed, women, mean ± SD
[9] = female, po, Fast, women, single oral dose, mean ± SD
[10] = female, po, Fed, women, single oral dose, mean ± SD
[11] = male, oral, only CYP2C19*1/*1 subjects, Fast, men, mean ± SD
[12] = male, oral, only CYP2C19*1/*1 subjects, Fed, men, mean ± SD
[13] = male, po, Fast, men, single oral dose, mean ± SD
[14] = male, po, Fed, men, single oral dose, mean ± SD

Ke ([1]; Fast, all subjects, single oral dose, mean ± SD): 0.61 ± 0.21
Ke ([1]; Fast, men, single oral dose, mean ± SD): 0.56 ± 0.23
Ke ([1]; Fast, women, single oral dose, mean ± SD): 0.65 ± 0.18
Ke ([1]; Fed (high-fat breakfast), all subjects, single oral dose, mean ± SD): 0.63 ± 0.21
Ke ([1]; Fed, men, single oral dose, mean ± SD): 0.61 ± 0.23
Ke ([1]; Fed, women, single oral dose, mean ± SD): 0.65 ± 0.19
AUC(0-inf) [1, 3]: 6090 ± 2920 ng·h/mL
CL/F [1, 3]: 2 mL/min/kg
Vd/F [1, 3]: 0.18 ± 0.03 L/kg
half-life [1, 3]: 1.2 ± 0.4 h
Cmax [1, 3]: 2540 ± 836 ng/mL
Tmax ([1]; both sexes, oral, only CYP2C19*1/*1 subjects, Fast, men and women, mean ± SD, read-out: Tmax): 3 ± 0.7 h
AUC(0-inf) [1, 4]: 4690 ± 2300 ng·h/mL
CL/F [1, 4]: 2.67 mL/min/kg
Vd/F [1, 4]: 0.24 ± 0.05 L/kg
half-life [1, 4]: 1.2 ± 0.5 h
Cmax [1, 4]: 2660 ± 531 ng/mL
Tmax ([1]; both sexes, oral, only CYP2C19*1/*1 subjects, Fed, men and women, mean ± SD, read-out: Tmax): 5.7 ± 1.2 h
Tmax ([1]; both sexes, oral, under fasting conditions, range among subjects, read-out: Tmax range): 1.5 to 5 h
Tmax ([1]; both sexes, oral, under fed conditions, range among subjects, read-out: Tmax range): 1 to 21 h
AUC(0-inf) [1, 5]: 6950 ± 3290 ng·h/mL
CL/F [1, 5]: 1.83 mL/min/kg
Vd/F [1, 5]: 0.17 ± 0.03 L/kg
half-life [1, 5]: 1.3 ± 0.6 h
Cmax [1, 5]: 2780 ± 862 ng/mL
Tmax ([1]; both sexes, po, Fast, all subjects, single oral dose, mean ± SD, read-out: Tmax): 3 ± 0.8 h
AUC(0-inf) [1, 6]: 4630 ± 2020 ng·h/mL
CL/F [1, 6]: 2.67 mL/min/kg
Vd/F [1, 6]: 0.26 ± 0.1 L/kg
half-life [1, 6]: 1.3 ± 0.6 h
Cmax [1, 6]: 2650 ± 603 ng/mL
Tmax ([1]; both sexes, po, Fed (high-fat breakfast), all subjects, single oral dose, mean ± SD, read-out: Tmax): 7 ± 3 h
AUC lower under fed conditions ([1]; fed vs fasting, all subjects): 33%
Delay of mean Tmax (absorption) by food ([1]; fed vs fasting, all subjects): around 4 h
Delay of Tmax by food ([1]; fed vs fasting, only subjects with CYP2C19*1/*1): 2.7 h
AUC(0-inf) [1, 7]: 7820 ± 2700 ng·h/mL
CL/F [1, 7]: 1.83 mL/min/kg
Vd/F [1, 7]: 0.16 ± 0.04 L/kg
half-life [1, 7]: 1.1 ± 0.2 h
Cmax [1, 7]: 3230 ± 685 ng/mL
Tmax ([1]; female, oral, only CYP2C19*1/*1 subjects, Fast, women, mean ± SD, read-out: Tmax): 2.9 ± 0.8 h
AUC(0-inf) [1, 8]: 4910 ± 2190 ng·h/mL
CL/F [1, 8]: 2.83 mL/min/kg
Vd/F [1, 8]: 0.25 ± 0.06 L/kg
half-life [1, 8]: 1.1 ± 0.3 h
Cmax [1, 8]: 2790 ± 476 ng/mL
Tmax ([1]; female, oral, only CYP2C19*1/*1 subjects, Fed, women, mean ± SD, read-out: Tmax): 6.2 ± 1.1 h
AUC(0-inf) [1, 9]: 7320 ± 2710 ng·h/mL
CL/F [1, 9]: 1.83 mL/min/kg
Vd/F [1, 9]: 0.16 ± 0.03 L/kg
half-life [1, 9]: 1.1 ± 0.3 h
Cmax [1, 9]: 3240 ± 859 ng/mL
Tmax ([1]; female, po, Fast, women, single oral dose, mean ± SD, read-out: Tmax): 2.9 ± 0.8 h
AUC(0-inf) [1, 10]: 4660 ± 1790 ng·h/mL
CL/F [1, 10]: 2.83 mL/min/kg
Vd/F [1, 10]: 0.28 ± 0.12 L/kg
half-life [1, 10]: 1.2 ± 0.7 h
Cmax [1, 10]: 2700 ± 614 ng/mL
Tmax ([1]; female, po, Fed, women, single oral dose, mean ± SD, read-out: Tmax): 8.4 ± 3.7 h
AUC(0-inf) [1, 11]: 4780 ± 2470 ng·h/mL
CL/F [1, 11]: 2.33 mL/min/kg
Vd/F [1, 11]: 0.2 ± 0.02 L/kg
half-life [1, 11]: 1.3 ± 0.5 h
Cmax [1, 11]: 2020 ± 493 ng/mL
Tmax ([1]; male, oral, only CYP2C19*1/*1 subjects, Fast, men, mean ± SD, read-out: Tmax): 3 ± 0.7 h
AUC(0-inf) [1, 12]: 4520 ± 2520 ng·h/mL
CL/F [1, 12]: 2.5 mL/min/kg
Vd/F [1, 12]: 0.23 ± 0.03 L/kg
half-life [1, 12]: 1.2 ± 0.6 h
Cmax [1, 12]: 2560 ± 581 ng/mL
Tmax ([1]; male, oral, only CYP2C19*1/*1 subjects, Fed, men, mean ± SD, read-out: Tmax): 5.3 ± 1.1 h
AUC(0-inf) [1, 13]: 6580 ± 3830 ng·h/mL
CL/F [1, 13]: 1.83 mL/min/kg
Vd/F [1, 13]: 0.18 ± 0.03 L/kg
half-life [1, 13]: 1.5 ± 0.7 h
Cmax [1, 13]: 2320 ± 581 ng/mL
Tmax ([1]; male, po, Fast, men, single oral dose, mean ± SD, read-out: Tmax): 3.1 ± 0.8 h
AUC(0-inf) [1, 14]: 4610 ± 2270 ng·h/mL
CL/F [1, 14]: 2.5 mL/min/kg
Vd/F [1, 14]: 0.25 ± 0.08 L/kg
half-life [1, 14]: 1.3 ± 0.5 h
Cmax [1, 14]: 2590 ± 601 ng/mL
Tmax ([1]; male, po, Fed, men, single oral dose, mean ± SD, read-out: Tmax): 5.6 ± 1.1 h
Ke ([1]; only CYP2C19*1/*1 subjects, Fast, men and women, mean ± SD): 0.64 ± 0.19
Ke ([1]; only CYP2C19*1/*1 subjects, Fast, men, mean ± SD): 0.64 ± 0.23
Ke ([1]; only CYP2C19*1/*1 subjects, Fast, women, mean ± SD): 0.63 ± 0.12
Ke ([1]; only CYP2C19*1/*1 subjects, Fed, men and women, mean ± SD): 0.67 ± 0.20
Ke ([1]; only CYP2C19*1/*1 subjects, Fed, men, mean ± SD): 0.67 ± 0.25
Ke ([1]; only CYP2C19*1/*1 subjects, Fed, women, mean ± SD): 0.68 ± 0.14
SMILES: COc1ccnc(C[S+]([O-])c2nc3ccc(OC(F)F)cc3[nH]2)c1OC (stereo not drawn) [Pantoprazole, pantoprazole]
effect of concomitant intake of a standard breakfast on bioavailability [2]: no effect on bioavailability

— article PMC7382816 (BMC Pharmacology & Toxicology, 2020)
